Assay results: US20030229114A1, “Pyrroloquinoline quinone drugs as a neuroprotectant and methods of use thereof” (priority 2002, published 2003)
Values joined by “and” are separate entries in the source; they are usually repeats but may differ in a detail not shown here. Equal values may be shown once. “Also recorded” adds a separate entry of the source. Read-outs that look alike come from different tables or passages of the source.

Tested on: cultured rat forebrain neurons
Test: Survival assay of neuronal cultures (Alamar Blue reduction, 24 hr)
Conditions: for EC50: Rattus norvegicus, Neuron, read-out: EC50 of the protective effect against SIN-1 toxicity, SIN-1 1 mM
Procedure: Neuronal cultures were prepared from embryonic day 16 Sprague Dawley rat fetuses using methods similar to those previously described (Dichter, 1978) but modified to produce cultures that contained <1% astrocytes (Rosenberg and Aizenman, 1989; Rosenberg, 1991; Rosenberg et al., 1992; Wang et al., 1998). Cultures were initially plated on poly-L-lysine-coated 24-well plastic plates (Costar, Cambridge, Mass.) using an 80:10:10 (v/v) mixture ofDMEM (Life Technologies 11960-010), Ham's F-12 (Sigma, N-4888), heat-inactivated iron-supplemented calf serum (Hyclone A2151), containing 2 mM glutamine, 25 mM HEPES, 24 U/ml penicillin, and 24 μg/ml streptomycin and maintained in a 5% CO2 (balance air) incubator at 36° C. Cell proliferation was inhibited by exposure to 5 μM cytosine arabinoside at 24 hr in vitro for 72 hr. On the fourth day of culture, the medium was completely removed and replaced with 90% MEM, 10% Nuserum IV (Collaborative Research), 2 mM glutamine, 5 mM HEPES, containing 50 units/ml superoxide dismutase (Boehringer Mannheim, Indianapolis, Ind.), 20 units/ml catalase (Sigma CV-40), total glucose 11 mM, and total sodium bicarbonate 9.3 mM, plus 2% B27 supplement (Life Technologies 17504-036). Medium was not subsequently changed. To prevent evaporation of water, culture dishes were kept in wet dishes containing filter paper that was always kept wet.
In all experiments, 24-well plates were first washed three times in Hank's balanced salt solution (HBSS) containing 0.1% bovine serum albumin (BSA), and then they were placed in Earle's balanced salt solution (EBSS, which is composed of 116 mM NaCl, 5.4 mM KCl, 1.8 mM CaCl2, 0.8 mM MgSO4, 26 mM NaHCO3, 1 mM NaH2PO4 and 5.5 mM D-glucose). Experiments were carried out exclusively in EBSS. […] PQQ was directly dissolved in EBSS.
Survival of cells was determined after 24 hr exposure to the test compounds by assessing the ability of cultures to reduce Alamar Blue (Trek Diagnostic Systems, Inc., Westlake, Ohio) as an index of viability (McGahon et al., 1995). Details of this procedure have been provided elsewhere (Back et al., 1998, 1999). In brief, the test medium was removed after 24 hr, and then replaced with EBSS plus a 1:100 dilution of Alamar Blue. After 2 hr exposure, the medium was diluted 50-fold with water, and the fluorescence intensity was determined in a Hitachi fluorescence spectrophotometer using an excitation wavelength of 530 nm and an emission wavelength of 590 nm. The photomultiplier voltage was set at 700 V. In some experiments, the cell viability determined by Alamar Blue was compared to that determined by the assay of lactate dehydrogenase (LDH) release (Koh and Choi, 1987).

## O=C(O)c1cc(C(=O)O)c2c(n1)C(=O)C(=O)c1cc(C(=O)O)[nH]c1-2 [PQQ, Pyrroloquinoline quinone]
24 hr exposure, PQQ 100 μM
  Effect on neurotoxicity induced by NMDA plus DETA/NO: fully blocked; also recorded: block
DEA/NO 1 mM in the presence of PQQ 100 μM
  Neuronal survival: 39.7±16.8 % of control
DETA/NO 1 mM in the presence of PQQ 100 μM
  Neuronal survival: 30.7±7.7 % of control
DPT/NO 1 mM in the presence of PQQ 100 μM
  Neuronal survival: 1.7±0.7 % of control
ONOO− 100 μM in the presence of PQQ 100 μM
  Cell (neuronal) survival: 11±6% and 11±8%
PQQ 100 μM, DEA/NO, DPT/NO, DETA/NO 1 mM
  Effect on neurotoxicity caused by nitric oxide donors: nor did it prevent cell death; also recorded: no protective effect
PQQ 100 μM, ONOO− 100 μM
  Effect on neurotoxicity induced by ONOO− (peroxynitrite): potentiated; also recorded: significantly potentiates
PQQ 100 μM, SIN-1 1 mM, no catalase
  Effect on neurotoxicity induced by SIN-1: completely protected; also recorded: completely blocks
Representative experiment FIG. 2B
  EC50: 22.6 µM
Three experiments
  EC50: 15 ± 8.4 µM
Four hour exposure, PQQ 100 μM, NMDA 20 μM, DETA/NO 300 μM
  Effect on neurotoxicity induced by NMDA plus DETA/NO: completely blocked; also recorded: blocks
